How the values were obtained:
[1] = tested on: IL-1β-induced corneal angiogenesis in BALB/c mice; experiment: IL-1β-induced corneal angiogenesis; assay type: in vivo, mouse; details: day 6 after pellet implantation; 0.3 mg/kg daily i.p.
Protocol: BALB/c mice were anesthetized by intrapcritoneal (i.p.) injection of pentobarbital sodium (60 mg/kg). Hydron pellets (0.3 μl) containing 30 ng mouse IL-1β (401-ML; R&D Systems) were prepared and implanted into the corneas. Pellets were positioned 1 mm from the corneal limbus. Implanted eyes were treated with Bacitracin ophthalmic ointment (E. Fougera & Co.) to prevent infection.
To block VAP-1, mice received daily i.p. injections of a specific VAP-1 inhibitor, Compound II (R-tech Ueno Ltd., Tokyo, Japan) as described above. A daily dose of 0.3 mg/kg was administered at day 0 and continued until the sixth day after implantation. Two, four and six days after implantation, digital images of the corneal vessels were obtained and recorded using OpenLab software version 2.2.5 (Improvision Inc.) with standardized illumination and contrast and were saved onto disks. The quantitative analysis of new vessel growth in the mouse corneas was performed using Scion Image software (version 4.0.2; Scion Corp.).

ICAM-1 = experiment: ELISA of ICAM-1 in RPE-choroid complex after laser injury; assay type: in vivo, rat; details: 3 days after laser injury; 0.3 mg/kg daily i.p.; mean±SEM
Protocol: (§1) Brown-Norway rats were anesthetized with 0.2-0.3 ml of a 50:50 mixture of 100 mg/ml Ketamine and 20 mg/ml Xylazine. Pupils were dilated with 5.0% Phenylephrine and 0.8% Tropicamide. CNV was induced with a 532 nm laser (Oculight GLx, Iridex, Mountain View, Calif.). Six laser spots (150 mW, 100 μm, 100 msec) were placed in each eye using a slit-lamp delivery system and a cover glass as a contact lens. Production of a bubble at the time of laser confirmed the rupture of the Bruch's membrane.
To block VAP-1, a specific VAP-1 inhibitor, Compound II described above, was used (R-tech Ueno, Ltd., Tokyo, Japan). […]
The RPE-choroid complex was carefully isolated from eyes 3 days after photocoagulation and placed in 300 μl of lysis buffer supplemented with protease inhibitors and sonicated. The lysate was centrifuged at 15,000 rpm for 15 minutes at 4° C. and the levels of TNF-α, monocyte chemotactic protein (MCP)-1, and intercellular adhesion molecule (ICAM)-1 were determined with rat TNF-α (BD bioscience), MCP-1 (BD bioscience) and ICAM-1 (R&D Systems, Minneapolis, Minn.) enzyme-linked immunosorbent assay (ELISA) kits according to the manufacturers' protocols. Total protein concentration was determined using a Bio-Rad Protein Assay Kit (Bio-Rad Laboratories Hercules, Calif.) and dilutions of bovine serum albumin (Bio-Rad Laboratories) as standards.

[2] = tested on: laser-induced CNV in Brown-Norway rats; experiment: Laser-induced CNV, lesion size in choroidal flatmounts; assay type: in vivo, rat; details: 0.3 mg/kg BW daily i.p., mean±SEM
Protocol: as §1
(§2) To block VAP-1, a specific VAP-1 inhibitor, Compound II described above, was used (R-tech Ueno, Ltd., Tokyo, Japan). After laser injury, the inhibitor (0.3 mg/kg BW) was administered to the animals by daily i.p. injections. As a control, some animals received the same regimen for the vehicle solution alone.
One week or two weeks after laser injury and treatment with VAP-1 inhibitor or vehicle, the size of CNV lesions was quantified using choroidal flat mounts. Briefly, rats were anesthetized and perfused through the left ventricle with 20 ml PBS followed by 20 ml of 5 mg/ml fluorescein labeled dextran (FITC-dextran; MW=2×106, SIGMA) in 1% gelatin. The eyes were enucleated and fixed in 4% paraformaldehyde for 3 hours. The anterior segment and retina were removed from the eyecup. […] The average size of the CNV lesions was then determined and used for the evaluation.

[3] = tested on: laser-induced CNV in Brown-Norway rats; experiment: Macrophage (ED-1 positive cell) infiltration in CNV lesions; assay type: in vivo, rat; details: 3 days after laser injury; vs vehicle; n=4, p<0.05
Protocol: as §1, §2
At 1, 3, and 7 days after laser injury and treatment with either VAP-1 inhibitor or vehicle solution, animals were perfused with 200 ml of PBS/kg BW under deep anesthesia. […] The photographs of CNV lesions were taken, and the numbers of ED-1-positive cells were counted. To obtain a quantitative index of macrophage numbers in CNV lesions, an optical density plot of the selected area was generated by a histogram graphing tool in the Photoshop image analysis software (version 6.0; Adobe Systems, Mountain View, Calif.), as described in the literature (for example, Sakurai et al. (2003) IOVS 44: 3578-85). […]

Structure (SMILES): CC(=O)Nc1nc(CCc2ccc(NC(=N)NN)cc2)c(Cc2ccc(S(C)(=O)=O)cc2)s1 [Compound II]
- neovascular area relative to control mice (IL-1β alone or IL-1β+vehicle) [1]: about half
- ICAM-1 protein level in RPE-choroid complex (ICAM-1): 57 ± 2 ng/mg
- CNV size ([2]; 7 days after laser injury, n=7): 14,536±2175 μm^2
- CNV size ([2]; fourteen days after laser injury, n=10 eyes, not significant vs vehicle (p=0.5)): 23,992±1437 μm^2
- reduction of number of accumulated macrophages (ED-1 positive cells) in CNV lesions [3]: 41%
